From US20230255970A1, “COMPOSITIONS AND METHODS FOR TREATING PROLIFERATIVE DISEASES” (The Broad Institute, Inc., priority 2020, published 2023)

Assays:
[1] = tested on: YAP1 overexpression in U2OS cells; assay: Cell Painting morphological profile matching to YAP1/TAZ overexpression signature; format: cell-based, human; settings: for Corr. to YAP1 cluster: Pearson correlation of Cell Painting signatures, U2OS cells
From the text: (§1) Of these, analysis of the 220 constructs that were most closely representative of the annotated full-length transcripts was prioritized. […] Not all genes are likely to impact cellular morphology given the limitation of the experiment; using a single cell line at a single time point under a single set of conditions and stained with six fluorescent labels.
FIG. 2 provides an example characterization of matching the morphological signature of a gene query to the signature(s) of compounds in a library. Connections which show both positive and negative large correlations are considered as matches.
(§2) This standardization was done plate wise, based on the mean and standard deviation of the controls at profile level for the compound dataset. […] The signatures were then obtained by averaging the replicate profiles feature-wise. Pearson correlation was used on the aligned signatures of a gene and compound to score their connection.

[2] = tested on: TRAF2 overexpression in U2OS cells; assay: Cell Painting morphological profile matching to TRAF2 overexpression; format: cell-based, human; settings: for Corr. to TRAF2: Pearson correlation of Cell Painting signatures, U2OS cells
From the text: as §1, §2

[3] = tested on: U2OS cells; assay: Cell count in U2OS Cell Painting images; format: cell-based, human; settings: for Avg. Cell Count z-score: U2OS Cell Painting
From the text: as §1, §2

[4] = tested on: H9 human pluripotent stem cells; assay: qPCR of YAP1, CTGF and CYR61 in H9 hPSCs; format: cell-based; settings: 24 hrs
Protocol: H9 hPSCs (WiCell) were maintained on vitronectin (Thermo Fisher)-coated plates in Essential 8 (E8) medium. The cells were routinely passaged using 0.5 mM EDTA and treated with 5 μM Y-27632 dihydrochloride (Tocris) on the first day. For testing the effects of the small molecules, H9 hPSCs were seeded at 50K cells/cm^2 on vitronectin-coated plates in E8 medium supplemented with 5 μM Y-27632 dihydrochloride (day 0). On day 1, the medium was switched to E8 medium. On day 2, the medium was switched to E8 medium supplemented with the small molecules. Following overnight incubation, the cells were collected for subsequent analysis on day 3.
The RNA was extracted using TRIzol (Life Technologies) and Direct-zol™ RNA MiniPrep kit (Zymo Research) as per manufacturer instructions. The RNA was reverse transcribed using iScript cDNA synthesis kit (Bio-Rad). The qPCR was performed on CFX Connect (Bio-Rad) using iTaq Universal SYBR Green Supermix (Bio-Rad). GAPDH was used as a reference gene for normalization. The relative gene expression levels were determined using the ddCt method.

[5] = tested on: KP230 cells; assay: Proliferation assay, KP230 cells; format: cell-based, mouse; settings: 10 μM daily for 72 hours
From the text: (§3) YAP1 cell culture and treatments: Eisinger lab: Murine KP230 cells, a Yap1-dependent cancer cell line, were derived from a tumor from the KP mouse model (Kras^G12/D; Trp53^f/fl), as described in Eisinger-Mathason, T. S. K. et al., Proc. Natl. Acad. Sci. U.S.A 112 (2015): E3402-11, which is hereby incorporated by reference in its entirety. STS-109 UPS cells were derived from a human UPS tumor and validated by Rebecca Gladdy, MD (Sinai Health System, Toronto, Ontario, Canada). TC32 cells were a gift from Patrick Grohar, MD, PhD (Children's Hospital of Philadelphia). HT-1080, HCT-116, and HEK293T cells were purchased from ATCC. KP230, HT-1080, and HEK-293T cells were grown in DMEM with 10% FBS, 1% L-glutamine, and 1% penicillin/streptomycin (P/S). STS-109 cells were cultured in DMEM with 20% FBS, 1% L-glutamine, and 1% P/S. TC32 cells were grown in RPMI with 10% FBS, 1% L-glutamine, and 1% P/S. HCT-116 cells were cultured in McCoy's 5A medium with 10% FBS and 1% P/S. All cells were confirmed to be negative for mycoplasma contamination and were maintained in an incubator at 37C with 5% CO2. For experimental purposes, cells were cultured for up to 20 passages before being discarded, and were grown to approximately 50% confluence to circumvent the effects of high cell density on Yap1 expression and activity. All cell lines in the Eisinger laboratory were treated with 10 μM of each inhibitor or an equivalent volume of DMSO every 24 hours for 3 days, except for STS-109 cells, which were treated daily for 8 days.
(§4) NB4A treatment: Cells were treated with 10 μM of each inhibitor or an equivalent volume of DMSO every 24 hours for 3-8 days, and counted with a hemocytometer with trypan blue exclusion daily (KP230, HT-1080, TC32, HCT-116), or every 2 days (STS-109).

[6] = tested on: KP230 cells; assay: Percent viability of KP230 cells; format: cell-based, mouse; settings: 10 μM daily for 72 hours
From the text: as §3, with “For experimental purposes, cells were cultured for up to 20 passages before being discarded, and were grown to approximately 50% confluence to circumvent the effects of high cell density on Yap1 expression and activity. All cell lines in the Eisinger laboratory were treated with 10 μM of each inhibitor or an equivalent volume of DMSO every 24 hours for 3 days, except for STS-109 cells, which were treated daily for 8 days.” left out
as §4

[7] = tested on: HEK293, HepG2, A549 cells; settings: per PubChem, cited from earlier work
[8] = molecular target: PAX8 (Homo sapiens, UniProt Q06710); settings: per PubChem; cited from earlier work
[9] = tested on: murine periosteal cells; assay: qPCR of Yap1 and Cyr61 in murine periosteal cells; format: cell-based, mouse; settings: 5 μM
Protocol: Murine periosteal cells were isolated from a transgenic mouse model (CMV-Cre; R26R-rtTA^fl; tetO-YAP^S127A) in which YAP1 can be activated in a doxycycline inducible manner (Camargo 2011). This mouse model expresses a mutant form of YAP1 (YAP^S127A) that escapes degradation. Cells were cultured in a-MEM with 15% Fetal Bovine serum (S11550, R&D Systems), 1% GlutaMAX-I (Gibco, 35050-061) and 1% Penicillin/Streptomycin (Gibco, 15140-122).
To induce YAP^S127A, […] doxycycline was added to the cell culture medium for 48 hours. This was used as a positive control to compare YAP1 mRNA expression. Cells were also treated with BRD-K34692511-001-01-9 at 5 μM. mRNA was isolated from cells (n=3/group/time point) at 1, 4 or 48 hours after treatment using Qiagen RNeasy Mini kit (Qiagen, 74106). cDNA was prepared as per the manufacturer's protocol using the High-Capacity Reverse Transcription kit (Thermofisher scientific, 4368814). qPCR analysis was performed using the QuantStudio 6 Pro Real-Time PCR System.

Chain of PAX8 (Q06710 whole entry, species assumed): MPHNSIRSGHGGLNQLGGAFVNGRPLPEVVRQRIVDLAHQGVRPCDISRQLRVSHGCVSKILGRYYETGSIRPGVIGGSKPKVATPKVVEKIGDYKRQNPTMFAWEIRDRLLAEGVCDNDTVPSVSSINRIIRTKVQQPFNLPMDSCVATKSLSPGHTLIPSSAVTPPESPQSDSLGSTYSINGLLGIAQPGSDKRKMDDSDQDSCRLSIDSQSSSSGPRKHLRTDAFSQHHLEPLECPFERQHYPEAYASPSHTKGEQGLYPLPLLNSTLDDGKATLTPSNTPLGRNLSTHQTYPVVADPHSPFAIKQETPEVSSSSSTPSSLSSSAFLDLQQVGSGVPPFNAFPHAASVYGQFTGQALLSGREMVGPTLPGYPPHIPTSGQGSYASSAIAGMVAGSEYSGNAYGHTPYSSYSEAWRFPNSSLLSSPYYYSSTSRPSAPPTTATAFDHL

Structure (SMILES) | Cell Painting profile correlation with YAP1 overexpression [1] | Corr. to YAP1 cluster [1] | Cell Painting profile correlation with TRAF2 overexpression [2] | Corr. to TRAF2 [2] | proliferation in the U2OS Cell Painting images [3] | Avg. Cell Count z-score [3] | mRNA levels of hippo pathway members (YAP1, CTGF, CYR61) [4] | proliferation [5] | cell viability [6] | AC50 ([7]; read-out: AC50, inhibition of cell proliferation) | PAX8 inhibition [8] | mRNA levels of Yap1 and Cyr61 ([9]; 1 and 4 hours) | mRNA levels of Yap1 and Cyr61 ([9]; 48 hours) | AC50, inhibition of cell proliferation [7]
CO[C@@H]1CN(C)C(=O)c2ccc(NC(=O)c3ccc(-c4ccccc4)cc3)cc2OC[C@H](C)NC[C@@H]1C [BRD-K28862419, N-[(4S,7S,8S)-8-methoxy-4,7,10-trimethyl-11-oxo-2-oxa-5,10-diazabicyclo[10.4.0]hexadeca-1(12),13,15-trien-15-yl]-4-phenylbenzamide] | −0.43 | −0.4317 | 0.41 | 0.4068 | −2.0 st dev | −2.044 | did not dramatically impact | inhibited KP230 cell proliferation | modestly yet significantly reduced | 5 to 18 µM | inhibits PAX8 | – | – | –
CO[C@@H]1CN(C)C(=O)c2cc(NC(=O)Nc3ccc(C(F)(F)F)cc3)ccc2OC[C@@H](C)NC[C@@H]1C [BRD-K34692511, 1-[(4R,7S,8S)-8-methoxy-4,7,10-trimethyl-11-oxo-2-oxa-5,10-diazabicyclo[10.4.0]hexadeca-1(12),13,15-trien-14-yl]-3-[4-(trifluoromethyl)phenyl]urea] | −0.45 | −0.4398 | 0.29 | 0.2869 | had none of these impacts | 0.478 | did not dramatically impact | inhibited KP230 cell proliferation | – | – | had none of these impacts | not at 1 and 4 hours | substantially upregulated | had none of these impacts
